Ends that are not written are not given here.
What was measured:
[1] = tested on: HUVECs; experiment: Cell proliferation assay (MTT); format: cell-based, human; conditions: 48 h, VEGF-A165 30 ng/mL, n = 3
Description: The anti-proliferative effect was evaluated by the MTT assay.
Briefly, HUVECs were seeded into 96-well plates (5 × 10^3 cells/well) and allowed to attach overnight. […] Then, 20 µL of MTT solution was added to each well and further cultured for 4 h under dark conditions. After removing the medium, 150 µL of DMSO was added to dissolve formazan crystals. The 96-well plates were shaken at a low speed for 10 min. The absorbance was measured at 490 nm using a Microplate Reader (Bio-Rad 680, Hercules, CA, USA).

[2] = tested on: HUVECs; experiment: Wound healing assay (cell migration); format: cell-based, human; conditions: 160 μmol/L; VEGF-A165 30 ng/mL; at 24 h or 48 h after scratch; n = 3
Description: HUVECs were firstly seeded into 6-well culture plates (3 × 10^5 cells/well). Following overnight incubation, the monolayer HUVECs were scraped by pipette tips of 200 μL and washed by cold PBS. […] The cells were incubated for another 48 h. Images were captured at 0 h, 24 h, and 48 h using an inverted microscope. The cell migration rate was counted by the ImageJ software.

[3] = tested on: HUVECs; experiment: Transwell invasion assay; format: cell-based, human; conditions: 160 μmol/L; VEGF-A165 30 ng/mL; 24 h; n = 3
Description: Matrigel was diluted in serum-free F-12K medium (dilution ratio 1:5) and was coated onto each transwell chamber and incubated at 37 °C for 2 h. HUVECs were seeded in the upper compartment of the transwell chamber at a density of 2 × 10^4 cells/well. F-12K medium (containing 20% serum) was added to the lower chamber. […] Then, the medium was aspirated, and the chambers were washed with PBS and placed in a fixative for 30 min, stained with 0.1% crystal violet for 30 min, washed with PBS, and dried. An inverted fluorescence microscope was used to photograph the chambers, and the number of invaded cells was counted. The cells that migrated to the bottom of the chamber were photographed with an inverted microscope.

[4] = tested on: VEGFR-2; experiment: Western blot, phosphorylation of VEGFR-2; format: cell-based, human; conditions: 320 μmol/L; 90 min; VEGF-A165 30 ng/mL; HUVECs; n = 3
Description: (§1) For Western blotting analysis, HUVECs were seeded into 6-well culture plates at 3 × 10^5 cells/well and incubated overnight. […] Two control groups (F-12K medium in the absence or presence of VEGF-A165) were set. The cells were washed with cold PBS and lysed with lysis buffer (protease and phosphatase inhibitors) on the ice for 30 min, and then centrifuged at 4 °C for 15 min at 14,000 r/min. The supernatant was collected, and its total protein concentration was determined by the BCA protein assay kit. Equal amounts of proteins were separated by 10% SDS-PAGE gels and transferred to polyvinylidene difluoride (PVDF) membranes. After blocking with 5% non-fat milk for 1 h, the membranes were incubated with specific antibodies at 4 °C overnight. Then, the membranes were washed with TBST (Tris-Buffered Saline with 0.1% Tween 20) and incubated with horseradish peroxidase (HRP)-conjugated secondary antibody for 1 h at room temperature. The proteins on the membranes were visualized with enhanced chemiluminescence agents.

[5] = tested on: ERK1/2; experiment: Western blot, phosphorylation of ERK1/2; format: cell-based, human; conditions: 320 μmol/L, 90 min, VEGF-A165 30 ng/mL, HUVECs, vs control, AT7, TAT, n = 3
Description: as §1

[6] = tested on: FAK; experiment: Western blot, phosphorylation of FAK; format: cell-based, human; conditions: 320 μmol/L, 90 min, VEGF-A165 30 ng/mL, HUVECs, vs control, AT7, TAT, n = 3
Description: as §1

[7] = tested on: VEGFR-2 and the above kinases (PLC-γ, ERK1/2, SRC, AKT, FAK); experiment: Western blot, total expression levels; format: cell-based, human; conditions: 320 μmol/L; 90 min; VEGF-A165 30 ng/mL; HUVECs; n = 3
Description: as §1

[8] = tested on: intracranial U87-mCherry-luc glioma; experiment: Glioma distribution and vascular targeting in vivo (FITC fluorescence, CD31 immunostaining); design: species or system nude mice; conditions: 1 h
Excerpt: The orthotopic U87-mCherry-luc glioma-bearing nude mice model was firstly established. Female nude mice were anesthetized by isoflurane and fixed on a ventricle stereotaxic instrument. U87-mCherry-luc cells were collected after trypsin digestion and then injected into the right striatum of the brain of nude mice. On the 4th day after the surgery, the bioluminescence of the glioma tissue was detected by the IVIS kinetic imaging system (Lumina II; Caliper, MA, USA). The mice were randomly divided into four groups according to the bioluminescence intensity (n = 3). FITC-AT7, FITC-TAT, and FITC-TAT-AT7 (30 mg/Kg) were injected into mice via the tail vein on day 8. The control group was only injected with normal saline. After 1 h, the mice were sacrificed, and the brains were collected and fixed with 4% paraformaldehyde for 24 h. Then, the fixed brains were dehydrated by 15% and 30% sucrose, successively, frozen with O.C.T. embedding reagent, and then cut into frozen brain tissue slices. Then, sections of slices were incubated with rabbit anti-murine CD31 antibody, followed by treatment with Cy5.5-labeled goat anti-rabbit IgG secondary antibody. The slices were further stained with DAPI for 5 min and observed using a confocal microscope.

[9] = tested on: U87-mCherry-luc glioma tissue; experiment: TUNEL staining of glioma tissue; format: in vivo, nude mice; conditions: 20 mg/kg/day i.v., 11 days; tissue at day 15; n = 3
Description: (§2) The orthotopic U87-mCherry-luc glioma-bearing nude mice were randomly assigned to 6 groups (n = 5) according to the bioluminescence intensity of glioma measured on day 4. […] The bioluminescence intensity was measured on days 4, 7, 11, and 14, respectively. Nude mice were weighed daily. On day 15, the mice were sacrificed, and the glioma-bearing brains were harvested. The brain tissues were fixed with 4.0% paraformaldehyde, embedded in paraffin, and cut into slices. The TUNEL staining and CD31 immunohistochemical staining were conducted according to standard histological procedures.

[10] = tested on: glioma blood vessels (CD31); experiment: CD31 immunohistochemical staining of glioma tissue (blood vessel density); format: in vivo, nude mice; conditions: 20 mg/kg/day i.v., 11 days; tissue at day 15; n = 3
Description: as §2

[11] = tested on: NRP-1; design: method as in 2 sources, ref 21 = [21]; PMID 17983687; doi:10.1016/j.peptides.2007.09.013; 21. Starzec A. Ladam P. Vassy R. Badache S. Bouchemal N. Navaza A. du Penhoat C.H. Perret G.Y. Structure-function analysis of the antiangiogenic ATWLPPR peptide inhibiting VEGF (165) binding to neurop ||| ref 36 = [36]; PMID 11327725; doi:10.1006/bbrc.2001.4790; 36. Jia H. Lohr M. Jezequel S. Davis D. Shaikh S. Selwood D. Zachary I. Cysteine-rich and basic domain HIV-1 Tat peptides inhibit angiogenesis and induce endothelial cell apoptosis Biochem. Biophys. R; conditions: C-terminal LPPR essential; cited from earlier work
[12] = FITC-labeled peptide 30 mg/kg, tail vein, n = 3

Molecule | inhibition rate on HUVECs' proliferation ([1]; 320 μmol/L, MTT, 490 nm) | inhibition of HUVECs' proliferation ([1]; 20-320 μmol/L, MTT) | inhibition rate compared with AT7, TAT, TAT+AT7 ([1]; concentration higher than 40 μmol/L) | migration rate [2] | invasion rate [3] | phosphorylation level of VEGFR-2 [4] | phosphorylation level of ERK1/2 [5] | phosphorylation level of FAK [6] | total expression levels of VEGFR-2 and the above kinases [7] | co-localization with glioma blood vessels (CD31) [8, 12] | green (FITC) fluorescence intensity in glioma tissue [8, 12] | accumulation and distribution in the glioma region ([8]; FITC-labeled peptide, intravenous, discussion) | number of apoptotic cells (TUNEL) [9] | blood vessel density (CD31) [10] | effect on VEGF-A165 binding to NRP-1 [11]
CC(C)C[C@H](NC(=O)[C@H](Cc1c[nH]c2ccccc12)NC(=O)[C@@H](NC(=O)[C@H](C)NC(=O)[C@H](CS)NC(=O)[C@H](CCCNC(=N)N)NC(=O)[C@H](CCCNC(=N)N)NC(=O)[C@H](CCCNC(=N)N)NC(=O)[C@H](CCC(N)=O)NC(=O)[C@H](CCCNC(=N)N)NC(=O)[C@H](CCCNC(=N)N)NC(=O)[C@H](CCCCN)NC(=O)[C@H](CCCCN)NC(=O)[C@@H](N)CCCNC(=N)N)[C@@H](C)O)C(=O)N1CCC[C@H]1C(=O)N1CCC[C@H]1C(=O)N[C@@H](CCCNC(=N)N)C(=O)O [TAT-AT7] | more than 50% | significantly inhibit proliferation of HUVECs in a concentration-dependent manner | significantly higher than that of the AT7, TAT, and TAT+AT7 groups | significantly lower than that of the control, AT7, TAT, and TAT+AT7 groups | significantly lower than that of the other groups | reduce the phosphorylation level of VEGFR-2 | significantly inhibited the phosphorylation level | significantly inhibited the phosphorylation level | no significant effect on the total expression levels | obviously co-localized with glioma blood vessels | significantly higher than that in the AT7 and TAT groups | higher accumulation and deeper distribution in the glioma region after intravenous injection compared to TAT and TAT+AT7 | significantly higher than that in the saline, AT7, TAT, and TAT+AT7 groups | significantly lower than that in the other groups | 
ATWLPPR [AT7, ATWLPPR] |  |  |  |  |  |  |  |  |  |  |  |  |  |  | inhibitory effect of AT7 on VEGF-A165 binding to NRP-1
